{"source": "paper PMC10006239", "about": "“C–N bond formation by a polyketide synthase” (Nature Communications, 2023)", "key": {"[1]": {"biological_target": "T1, CalA3 (Streptomyces chartreusis, UniProt A0A2N9BJK0)", "T1 construct": "gene SCNRRL3882_6975; full length, gene 5178 bp, C-terminal 6xHis tag (pET28a), E. coli BAP1; about 180 kDa per chain, homodimer about 360 kDa; domains DD-KS-LD-AT-DH-psiKR/KR, no ACP", "T1 sequence (A0A2N9BJK0 1-1727)": "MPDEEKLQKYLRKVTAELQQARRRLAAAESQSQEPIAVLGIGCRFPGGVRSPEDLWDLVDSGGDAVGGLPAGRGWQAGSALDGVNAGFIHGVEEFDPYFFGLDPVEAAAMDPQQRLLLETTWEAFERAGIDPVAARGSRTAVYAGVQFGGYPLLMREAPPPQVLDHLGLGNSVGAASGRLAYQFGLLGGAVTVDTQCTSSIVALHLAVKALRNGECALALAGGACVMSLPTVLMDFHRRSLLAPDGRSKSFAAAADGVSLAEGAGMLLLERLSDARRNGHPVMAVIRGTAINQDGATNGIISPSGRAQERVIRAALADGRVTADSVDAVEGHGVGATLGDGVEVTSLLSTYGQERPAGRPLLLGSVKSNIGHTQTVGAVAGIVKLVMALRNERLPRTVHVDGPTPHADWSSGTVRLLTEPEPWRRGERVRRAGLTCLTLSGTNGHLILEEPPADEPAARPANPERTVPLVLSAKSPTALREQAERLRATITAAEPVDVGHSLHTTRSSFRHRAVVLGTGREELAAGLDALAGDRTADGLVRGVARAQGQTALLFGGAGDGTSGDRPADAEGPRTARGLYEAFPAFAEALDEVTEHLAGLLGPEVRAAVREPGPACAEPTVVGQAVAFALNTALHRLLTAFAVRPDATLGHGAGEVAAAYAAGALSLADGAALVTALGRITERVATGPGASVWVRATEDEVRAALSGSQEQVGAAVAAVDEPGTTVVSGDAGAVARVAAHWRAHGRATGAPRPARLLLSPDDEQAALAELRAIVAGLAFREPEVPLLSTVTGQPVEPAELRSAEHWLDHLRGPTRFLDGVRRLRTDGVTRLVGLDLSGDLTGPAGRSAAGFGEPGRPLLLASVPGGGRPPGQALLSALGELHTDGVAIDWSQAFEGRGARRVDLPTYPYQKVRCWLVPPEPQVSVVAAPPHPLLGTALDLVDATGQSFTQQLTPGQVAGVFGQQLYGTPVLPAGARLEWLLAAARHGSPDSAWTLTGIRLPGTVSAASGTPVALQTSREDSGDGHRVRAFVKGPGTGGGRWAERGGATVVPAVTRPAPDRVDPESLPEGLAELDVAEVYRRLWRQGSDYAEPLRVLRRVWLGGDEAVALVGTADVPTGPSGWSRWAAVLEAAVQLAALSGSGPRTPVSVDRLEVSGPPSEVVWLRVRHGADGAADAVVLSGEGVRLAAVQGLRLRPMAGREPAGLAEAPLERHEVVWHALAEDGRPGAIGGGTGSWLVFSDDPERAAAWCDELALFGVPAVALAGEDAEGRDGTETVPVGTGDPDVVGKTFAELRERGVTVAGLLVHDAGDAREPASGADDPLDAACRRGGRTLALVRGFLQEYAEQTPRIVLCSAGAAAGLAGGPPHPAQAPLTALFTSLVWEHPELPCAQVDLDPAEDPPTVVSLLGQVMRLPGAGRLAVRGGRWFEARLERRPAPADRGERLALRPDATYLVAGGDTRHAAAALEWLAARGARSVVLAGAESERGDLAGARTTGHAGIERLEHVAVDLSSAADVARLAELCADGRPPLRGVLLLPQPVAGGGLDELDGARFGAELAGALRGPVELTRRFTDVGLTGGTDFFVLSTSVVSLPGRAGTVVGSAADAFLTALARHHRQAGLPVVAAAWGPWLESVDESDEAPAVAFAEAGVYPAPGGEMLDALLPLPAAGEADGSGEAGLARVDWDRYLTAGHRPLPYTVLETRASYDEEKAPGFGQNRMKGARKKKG", "assay": "cryo-EM structure, […] Å", "assay_type": "binding", "conditions": "KS substrate tunnel, chains A and B; specimen also contained 3-HAA; PDB id assigned by order of listing"}, "[2]": {"biological_target": "T1, CalA3", "assay": "cryo-EM structure, […] Å", "assay_type": "binding", "conditions": "KS substrate tunnel, chain A only; specimen also contained 3-HAA; PDB id assigned by order of listing"}, "[3]": {"biological_target": "T1, CalA3", "assay": "HPLC turnover assay at […] nm, products confirmed by LC-HRMS and NMR", "assay_type": "biochemical", "conditions": "5 µM CalA3, 0.15 mM SNAC-N1, 0.5 mM 3-HAA, 25 mM Tricine pH 7.5, 30 °C, 13 h; amidation and hydrolysis"}, "[4]": {"biological_target": "CalA3 (Streptomyces chartreusis NRRL 3882)", "assay": "cryo-EM structure; purified CalA3 at ~4 mg/mL in 50 mM Tricine pH 8.0 with 1 mM 3-HAA and SNAC-N1 (further samples at ~4.5 mg/mL with amidation or hydrolysis product and 3-HAA); Titan Krios 300 kV, K3 detector; homodimer"}}}
{"molecule": "O=C(CCCCCCCCCC(=O)c1ccc[nH]1)Nc1c(O)cccc1C(=O)O", "note": "[compound 3, amidation product]", "values": [{"measurement": "cryo-EM structure, 3.84 Å", "setting": "[1]", "value": "the amidation products were captured in the KS domains of both chain A and B"}]}
{"molecule": "O=C(O)CCCCCCCCCC(=O)c1ccc[nH]1", "note": "[compound 2, 11-oxo-11-(pyrrol-2-yl) undecanoic acid]", "values": [{"measurement": "cryo-EM structure, 3.97 Å", "setting": "[2]", "value": "the hydrolysis product was captured only in the KS domain of chain A"}]}
{"molecule": "CC(=O)NCCSC(=O)CCCCCCCCCC(=O)c1ccc[nH]1", "note": "[compound 1, SNAC-N1]", "values": [{"measurement": "HPLC turnover assay at 290 nm, products confirmed by LC-HRMS and NMR", "setting": "[3]", "value": "SNAC-N1 and 3-HAA were incubated with CalA3, and a total of three peaks were detected"}]}
{"molecule": "CalA3 (enzyme)", "values": [{"measurement": "stoichiometry N", "setting": "[4]", "value": 2}]}
